From ChEMBL document CHEMBL5233253, “β-Lactams as promising anticancer agents: Molecular hybrids, structure activity relationships and potential targets” (Eur J Med Chem, 2020)
Each block holds one molecule with its values, some of them ahead of it.

Tests used:
Heat shock protein HSP90 = Heat shock protein HSP90 (Homo sapiens, UniProt P07900+P08238); test: Inhibition of HSP90 (unknown origin); type: protein assay
Tubulin = test: Inhibition of tubulin (unknown origin) polymerization incubated for 5 mins by spectrophotometer analysis; type: protein-complex assay, Homo sapiens
A549 = test: Cytotoxicity against human A549 cells assessed as inhibition of cell growth by MTT assay; type: functional, cell-based
MCF7 = test: Cytotoxicity against human MCF7 cells assessed as inhibition of cell growth by MTT assay; type: functional, cell-based
HEK293 = test: Antiproliferative activity against human HEK293 cells assessed as inhibition of cell growth measured after 48 hrs by MTT assay; type: functional, cell-based; conditions: HEK293, 48 h
[1] = Inhibition of Klebsiella pneumoniae beta Metallo-beta-lactamase IMP-28
L1210 = test: Cytotoxicity against mouse L1210 cells assessed as reduction in cell viability; type: functional, cell-based
CCRF-CEM = test: Cytotoxicity against human CEM cells assessed reduction in cell viability; type: functional, cell-based
HT-1080 = test: Cytotoxicity against human HT-1080 cells assessed reduction in cell viability; type: functional, cell-based
[2] = Anti-keratosis activity in vitamin-A-deficient hamster trachea in presence of beta-lactamase; type: functional, tissue-based, Cricetulus griseus

IC50 (Heat shock protein HSP90): 5.6 µM
Compound: CCc1cc([C@@H]2CC(=O)N2c2ccc3c(c2)OCCO3)c(O)cc1O

IC50 (Tubulin): 2.26 µM
Compound: COc1cc(N2C(=O)[C@H](c3cccs3)[C@H]2c2cccc(N=[N+]=[N-])c2)cc(OC)c1OC

Compound: CC(O)C1C(=O)NC1OC(=O)/C=C/c1ccc(N)cc1 (centres undefined)
IC50 (A549): 1.59 µM
IC50 (MCF7): 1.59 µM

Compound: C[C@H](CCC(=O)OCc1cn([C@@H]2C(=O)N(CCN3C(=O)[C@@H](n4cc(COC(=O)CC[C@@H](C)[C@H]5CC[C@H]6[C@@H]7[C@H](O)C[C@@H]8C[C@H](O)CC[C@]8(C)[C@H]7C[C@H](O)[C@]56C)nn4)[C@H]3c3ccccc3)[C@@H]2c2ccccc2)nn1)[C@H]1CC[C@H]2[C@@H]3CC[C@@H]4C[C@H](O)CC[C@]4(C)[C@H]3C[C@H](O)[C@]12C
IC50 (HEK293): 10 µM

IC50 [1]: 0.34 µM
Compound: O=C(OCc1ccccc1)[C@H]1[C@@H](Cc2ccc(O)cc2)C(=O)N1C(=O)c1ccccc1

Compound: Cc1cn(CCCN2C(=O)C(OCc3ccccc3)C2c2ccc(Br)cc2)c(=O)n(CCCN2C(=O)C(OCc3ccccc3)C2c2ccc(Br)cc2)c1=O (centres undefined)
IC50 (L1210): 4.1 µM
IC50 (CCRF-CEM): 3.4 µM

Compound: CC(O)C1C(=O)NC1OC(=O)/C=C/c1ccc(Cl)cc1 (centres undefined)
IC50 (A549): 1.59 µM
IC50 (MCF7): 1.59 µM

IC50 [1]: 0.34 µM
Compound: O=C(O)c1ccc(COC(=O)[C@H]2[C@@H](Cc3ccccc3)C(=O)N2C(=O)Cc2cccc(C(=O)OCc3ccccc3)c2)cc1

IC50 [1]: 0.34 µM
Compound: O=C(OCc1ccccc1)c1cccc(CC(=O)N2C(=O)[C@H](Cc3ccccc3)[C@@H]2C(=O)OCc2ccccc2)c1

Compound: COc1ccc(/C=C/C(=O)OC2NC(=O)C2C(C)O)cc1 (centres undefined)
IC50 (A549): 1.59 µM
IC50 (MCF7): 1.59 µM

Compound: C[C@H](CCC(=O)NCc1cn([C@@H]2C(=O)N(CCN3C(=O)[C@@H](n4cc(CNC(=O)CC[C@@H](C)[C@H]5CC[C@H]6[C@@H]7CC[C@@H]8C[C@H](O)CC[C@]8(C)[C@H]7C[C@H](O)[C@]56C)nn4)[C@H]3c3ccccc3)[C@@H]2c2ccccc2)nn1)[C@H]1CC[C@H]2[C@@H]3CC[C@@H]4C[C@H](O)CC[C@]4(C)[C@H]3C[C@H](O)[C@]12C
IC50 (HEK293): 500 µM

Compound: C=C(C)[C@H](C(=O)OC(c1ccccc1)c1ccccc1)N1C(=O)/C(=C/C(=O)OC(C)(C)C)[C@H]1SSc1nc2ccccc2s1
IC50 (HT-1080): 0.4 µM

IC50 [1]: 0.34 µM
Compound: O=C(OCc1ccccc1)c1cccc(CC(=O)N2C(=O)[C@H](Cc3ccc(O)cc3)[C@@H]2C(=O)OCc2ccccc2)c1

Compound: CC(O)C1C(=O)NC1OC(=O)/C=C/c1ccccc1 (centres undefined)
IC50 (A549): 1.59 µM
IC50 (MCF7): 1.59 µM

Compound: CC(O)C1C(=O)NC1OC(=O)/C=C/c1ccc(Br)cc1 (centres undefined)
IC50 (A549): 1.59 µM
IC50 (MCF7): 1.59 µM

EC50 [2]: 0.0391 nM
Compound: CC1=C(/C=C/C(C)=C/C=C/C(C)=C/C(=O)OCC2=C(C(=O)O)N3C(=O)[C@@H](NC(=O)COc4ccccc4)[C@H]3[S+]([O-])C2)C(C)(C)CCC1 (some centres undefined)

Compound: C[C@H](CCC(=O)NCc1cn([C@@H]2C(=O)N(CCN3C(=O)[C@@H](n4cc(CNC(=O)CC[C@@H](C)[C@H]5CC[C@H]6[C@@H]7[C@H](O)C[C@@H]8C[C@H](O)CC[C@]8(C)[C@H]7C[C@H](O)[C@]56C)nn4)[C@H]3c3ccccc3)[C@@H]2c2ccccc2)nn1)[C@H]1CC[C@H]2[C@@H]3CC[C@@H]4C[C@H](O)CC[C@]4(C)[C@H]3C[C@H](O)[C@]12C
IC50 (HEK293): 100 µM

Compound: C[C@H](CCC(=O)OCc1cn([C@@H]2C(=O)N(CCN3C(=O)[C@@H](n4cc(COC(=O)CC[C@@H](C)[C@H]5CC[C@H]6[C@@H]7CC[C@@H]8C[C@H](O)CC[C@]8(C)[C@H]7C[C@H](O)[C@]56C)nn4)[C@H]3c3ccccc3)[C@@H]2c2ccccc2)nn1)[C@H]1CC[C@H]2[C@@H]3CC[C@@H]4C[C@H](O)CC[C@]4(C)[C@H]3C[C@H](O)[C@]12C
IC50 (HEK293): > 1000 µM
